Earlier results as cited in patent US9198935B2, “Hydrogen peroxide-based skin disinfectant” (VIROX TECHNOLOGIES INC., priority 2004, dated 2015).
Where two headings read alike, the source gives them in different places.

System: Staphylococcus aureus

OO [hydrogen peroxide]
time to achieve a greater than 6 log reduction in Staphylococcus aureus (25% w/w aqueous solution of hydrogen peroxide): 20 seconds
time to achieve a greater than 6 log reduction in Staphylococcus aureus (solution containing 3% w/w hydrogen peroxide): 20 minutes
